Reference: patent US7691883B2, “Cinnamoyl compound and use of the same” (Sumitomo Chemical Company, Limited, priority 2003, dated 2010)

Experiment: Ability of a test compound to regulate transcription of a Type I collagen gene using the expression level of a reporter gene (COL-Luc luciferase) as an index
Format: cell-based
Settings: final concentration 1 μM; normal human fetal skin fibroblast transfected with COL-Luc; TGF-β, 40 hours; read-out: inhibition percentage (inhibitory effect on the ability of TGF-β to promote transcription of a Type I collagen gene)
Experimental: 1×10^8 cells of a normal human fetal skin fibroblast (Clontech, catalogue No. CC-2509) were cultured at 37° C. overnight under 5% CO2 atmosphere. After the cultured cells were washed with a sodium phosphate buffer (hereinafter, referred to as PBS) twice, 3 ml of PBS was added thereto and the cells were scraped away the wall of a vessel using a cell scraper (Nalgen, catalogue No. 179693). The scraped cells were collected by centrifugation (1,500 rpm, 4° C., 15 min), and these were suspended in 20 ml of PBS and centrifuged again. To the resulting precipitates were added 11 ml of Solution 2 and 4.8 μl of pronase of DNA Extraction Kit (Stratagene, catalogue No. 200600). After shaken at 60° C. for 1 hour, the resulting mixture was allowed to stand in ice for 10 minutes. Then, 4 ml of Solution 3 of the kit was added to the mixture. After mixed, the mixture was allowed to stand in ice for 5 minutes and then centrifuged (3,000 rpm, 4° C., 15 min) to recover a supernatant. To the recovered supernatant was added 2 μl of RNase per 1 ml of the supernatant and the mixture was allowed to stand at 37° C. for 15 minutes. To the mixture was added 2-fold volume of ethanol. After mixed, a white thread-like substance (genomic DNA) appeared and the substance was recovered. The recovered genomic DNA washed with 70% ethanol and then air-dried. The air-dried genomic DNA was dissolved in 500 μl of 10 mM Tris-HCl, 1 mM EDTA (pH 8.0) (hereinafter, referred to as TE).
The resulting genomic DNA solution (the amount equivalent to 1 μg of genomic DNA), each 1 μl (10 pmol/μl) of an oligonucleotide consisting of the nucleotide sequence represented by SEQ ID No:1 and an oligonucleotide consisting of the nucleotide sequence represented by SEQ ID No:2, 29 μL of distilled water, 5 μl of the buffer attached to TaKaRa LA Taq (TAKARA SHUZO, catalogue No. RR002A), 5 μL of a Mg^2+ solution, 5 μL of a dNTP mixture and 0.5 μl of TaKaRa LA Taq (TAKARA SHUZO, catalogue No. RR002A) were mixed. After the resulting mixed solution was incubated at 94° C. for 5 minutes, the mixed solution was subjected to 30 cycles, in which one cycle consists of incubation at 94° C. for 1 minute, at 60° C. for 1 minute and then at 72° C. for 1 minute. The mixed solution was electrophoresed on a 2% agarose gel to recover about 0.5 kb of a DNA. The recovered DNA was treated with phenol/chloroform and then precipitated with ethanol to recover the DNA. The resulting DNA was dissolved in ultrapure water. To this solution were added 2.5 μl of NheI and 2.5 μl of HindIII, and then incubated at 37° C. for 3 hours. Then, the solution was electrophoresed on a 2% agarose gel to recover about 3.5 kb of a DNA. The recovered DNA was precipitated with ethanol to recover again the DNA (hereinafter, referred to as the collagen promoter DNA).
On the other hand, the vector pGL3 (Promega, catalogue No. E1751) having the nucleotide sequence encoding firefly luciferase was digested with NheI and HindIII, and then subjected to agarose gel electrophoresis as described above to recover about 5 kb of a DNA. The recovered DNA was precipitated with ethanol to recover the DNA again. To the recovered DNA were added 44 μl of distilled water, 5 μl of Buffer attached to Alkaline Phosphatase (TAKARA SHUZO, catalogue No. 2120A) and 1 μl of Alkaline Phosphatase (TAKARA SHUZO, catalogue No. 2120A). The mixed solution was incubated at 65° C. for 30 minutes. Then, the mixed solution was treated with phenol/chloroform twice, and precipitated with ethanol to recover the DNA (hereinafter referred to as the Luc vector DNA). Then, after about 20 ng of the collagen promoter DNA and about 20 ng of the Luc vector DNA were mixed, the same amount of a DNA Ligation kit Ver2 enzyme solution was added and this was incubated overnight at 16° C. To the mixed solution was added Escherichia coli 5Hdα (TOYOBO, catalogue No. DNA-903), this was allowed to stand in ice for 30 minutes, and then incubated at 42° C. for 45 seconds. […]

| SMILES | inhibition at 1 µM [%] |
| --- | --- |
| COc1cc(C)oc(=O)c1C(=O)C=Cc1cccc(OCC#N)c1 [(15a), 4-methoxy-3-[3-[3-(cyanomethoxy)phenyl]-1-oxo-2-propenyl]-6-methyl-2H-pyran-2-one] | ≥ 70 |
| C=CCOc1cccc(C=CC(=O)c2c(OC)cc(C)oc2=O)c1 [(5a), 4-methoxy-3-[3-(3-allyloxyphenyl)-1-oxo-2-propenyl]-6-methyl-2H-pyran-2-one] | ≥ 70 |
| N#CCOc1cccc(C=CC(=O)c2c(O)c3ccccc3oc2=O)c1 [(14d), 4-hydroxy-3-[3-[3-(cyanomethoxy)phenyl]-1-oxo-2-propenyl]-2H-1-benzopyran-2-one] | ≥ 70 |
| COCCOC(=O)Nc1cccc(C=CC(=O)c2c(OC)c3ccccc3oc2=O)c1 [(25d), 4-methoxy-3-[3-[3-[(2-methoxyethoxy)carbonylamino]phenyl]-1-oxo-2-propenyl]-2H-1-benzopyran-2-one] | ≥ 70 |
| COC(=O)CNC(=O)c1cccc(C=CC(=O)c2c(N3CCCCC3)cc(C)oc2=O)c1 [(16b), 4-piperidino-3-[3-[3-[[(methoxycarbonylmethyl)amino]carbonyl]phenyl]-1-oxo-2-propenyl]-6-methyl-2H-pyran-2-one] | ≥ 70 |
| C=CCOc1cccc(C=CC(=O)c2c(OCC=C)cc(C)oc2=O)c1 [(1b), 4-allyloxy-3-[3-(3-allyloxyphenyl)-1-oxo-2-propenyl]-6-methyl-2H-pyran-2-one] | ≥ 70 |
| COCC(=O)Nc1cccc(C=CC(=O)c2c(N3CCCCC3)c3ccccc3oc2=O)c1 [(17e), 4-piperidino-3-[3-[3-(methoxyacetylamino)phenyl]-1-oxo-2-propenyl]-2H-1-benzopyran-2-one] | ≥ 70 |
| C#CCNc1cc(C)oc(=O)c1C(=O)C=Cc1cccc(C=CC#N)c1 [(20b), 4-propargylamino-3-[3-[3-(2-cyanoethenyl)phenyl]-1-oxo-2-propenyl]-6-methyl-2H-pyran-2-one] | ≥ 70 |
| C#CCOc1ccc(C=CC(=O)c2c(OC)cc(C)oc2=O)cc1 [(10a), 4-methoxy-3-[3-(4-propargyloxyphenyl)-1-oxo-2-propenyl]-6-methyl-2H-pyran-2-one] | ≥ 70 |
| Cc1cc(O)c(C(=O)C=Cc2ccc(C(=O)NCCO)cc2)c(=O)o1 [(32d), 4-hydroxy-3-[3-[4-[(2-hydroxyethyl)aminocarbonyl]phenyl]-1-oxo-2-propenyl]-6-methyl-2H-pyran-2-one] | ≥ 70 |
| CSCCOc1cccc(C=CC(=O)c2c(N3CCCCC3)cc(C)oc2=O)c1 [(14b), 4-piperidino-3-[3-[3-(2-methylthioethoxy)phenyl]-1-oxo-2-propenyl]-6-methyl-2H-pyran-2-one] | ≥ 70 |
| COCCNC(=O)c1ccc(C=CC(=O)c2c(O)cc(C)oc2=O)cc1 [(36a), 4-hydroxy-3-[3-[4-[(2-methoxyethyl)aminocarbonyl]phenyl]-1-oxo-2-propenyl]-6-methyl-2H-pyran-2-one] | ≥ 70 |
| COCC(=O)Nc1cccc(C=CC(=O)c2c(OC)cc(C)oc2=O)c1 [(22a), 4-methoxy-3-[3-[3-(methoxyacetylamino)phenyl]-1-oxo-2-propenyl]-6-methyl-2H-pyran-2-one] | ≥ 70 |
| COCCOC(=O)Nc1cccc(C=CC(=O)c2c(O)c3ccccc3oc2=O)c1 [(24d), 4-hydroxy-3-[3-[3-[(2-methoxyethoxy)carbonylamino]phenyl]-1-oxo-2-propenyl]-2H-1-benzopyran-2-one] | ≥ 70 |
| COCCOC(=O)Nc1cccc(C=CC(=O)c2c(O)cc(C)oc2=O)c1 [(24a), 4-hydroxy-3-[3-[3-[(2-methoxyethoxy)carbonylamino]phenyl]-1-oxo-2-propenyl]-6-methyl-2H-pyran-2-one] | ≥ 70 |
| COc1c(C(=O)C=Cc2cccc(OCC#N)c2)c(=O)oc2ccccc12 [(15d), 4-methoxy-3-[3-[3-(cyanomethoxy)phenyl]-1-oxo-2-propenyl]-2H-1-benzopyran-2-one] | ≥ 70 |
| C#CCOc1cccc(C=CC(=O)c2c(O)cc(C)oc2=O)c1 [(7a), 4-hydroxy-3-[3-(3-propargyloxyphenyl)-1-oxo-2-propenyl]-6-methyl-2H-pyran-2-one] | ≥ 70 |
| COc1cc(C)oc(=O)c1C(=O)C=Cc1cccc(C=CC#N)c1 [(2a), 4-methoxy-3-[3-[3-(2-cyanoethenyl)phenyl]-1-oxo-2-propenyl]-6-methyl-2H-pyran-2-one] | ≥ 70 |
| COCC(=O)Nc1cccc(C=CC(=O)c2c(OC)c3ccccc3oc2=O)c1 [Compound (22d), 4-methoxy-3-[3-[3-(methoxyacetylamino)phenyl]-1-oxo-2-propenyl]-2H-1-benzopyran-2-one] | ≥ 70 |
| COCCOC(=O)Nc1cccc(C=CC(=O)c2c(N3CCCCC3)c3ccccc3oc2=O)c1 [(18e), 4-piperidino-3-[3-[3-[(2-methoxyethoxy)carbonylamino]phenyl]-1-oxo-2-propenyl]-2H-1-benzopyran-2-one] | ≥ 70 |
| COCCOC(=O)Nc1cccc(C=CC(=O)c2c(OC)cc(C)oc2=O)c1 [(25a), 4-methoxy-3-[3-[3-[(2-methoxyethoxy)carbonylamino]phenyl]-1-oxo-2-propenyl]-6-methyl-2H-pyran-2-one] | ≥ 70 |
| C#CCOc1cccc(C=CC(=O)c2c(OCC=C)cc(C)oc2=O)c1 [(2b), 4-allyloxy-3-[3-(3-propargyloxyphenyl)-1-oxo-2-propenyl]-6-methyl-2H-pyran-2-one] | ≥ 70 |
